“Also recorded” adds a separate entry of the source.
What was measured:
[1] = test system: Vδ2 T cells; assay: Vδ2 T cell expansion from cultured PBMCs (γδTCR activator with or without TLR agonist), FACS; type: cell-based, human; conditions: for co-stimulatory effect on IPP induced Vδ2 T cell expansion: IPP 5 μg/ml plus TLR agonist, day 5 or 7
Method: Primary cells and cell lines: PBMCs and monocytes were obtained from Human Immunology Core at the University of Pennsylvania, which were obtained from healthy donors-Using informed consent and approved by Institutional Review Board. For γδ T cell expansion, PBMCs were cultured with RPMI1640 media supplemented with 10% FBS (HyClone, GE Healthcare, UT, USA), 100 U/ml Penicillin-Streptomycin, 2 mM L-Glutamine, 1/1000 2-Mercaptoethanol (2-Me) (Gibco, ThermoFisher Scientific, MA, USA) (or without 2-Me as indicated) and 200 units/ml of Recombinant Human IL-2 (PeproTech, NJ, USA) in 24-well microplates, new media added and supplemented every other day. TCR-γδ T cells were expanded in 24-well tissue culture treated microplates that were coated with mouse-monoclonal Anti-Pan-TCR γδ antibody (1.0 ug/ml in PBS; IMMU510, IM1349, Beckman). For naive γδT cell isolation, PBMCs were purified using a commercial Human TCR γ/δ T Cell Isolation Kit (Miltenyi Biotec, Germany). […] Human melanoma cell lines A375, A2058, WM9, 903 were obtained from Meenhard Herlyn's laboratory (The Wistar Institute, Philadelphia, PA, USA) and they were routinely tested for mycoplasma and DNA fingerprinted (Liu, et al., 2018, Nat Commun 9: 5426). Lung cancer cell line H1975, Colon cancer cell line HT-29, Gastric cancer cell line NCI-N87 were purchased from ATCC. Daudi cells were obtained from Andrei Thomas-Tikhonenko Lab at the University of Pennsylvania and Children's Hospital of Philadelphia, K562 cells were obtained from Michael Milone Lab at the University of Pennsylvania. BRAFi and MEKi combination therapy resistant (CR) cell lines WM9-CR and A2058-CR were generated as described before (Lu, et al., 2017, Nature 550: 133-136).
Flow cytometry: PBMCs and γδ T cell phenotypes were analyzed by flow cytometry. Briefly, single-cell suspensions were surface-stained for 30 min at 4° C. in dark, and […] staining was performed for 60 min after fixation and permeabilization using a True-Nuclear™ Transcription Factor Buffer Set (BioLegend, CA, USA). CFSE Cell Proliferation Kit for flow cytometry was purchased from Invitrogen (ThermoFisher Scientific, MA, USA). Fluorescein-conjugated antibodies were used. Data were acquired on LSRA/B or Fortessa B flow cytometers (BD Biosciences, NJ, USA) at Flow Cytometry and Cell Sorting Resource Laboratory at the University of Pennsylvania and analyzed with FlowJo software (Tree Star, Ashland, OR).

[2] = test system: UACC903 and A2058 melanoma cells; assay: Cytotoxicity and 3-D tumor spheroid assays with γδ T cells expanded by ZOL or anti-γδTCR antibody; type: cell-based, human
Method: Cytotoxicity assays. The CytoTox 96® Non-Radioactive Cytotoxicity Assay (Promega, Madison, WI) was applied to measure the cytotoxicity of expanded Vγ9Vδ2 T cells. In this respect, A375 (2×10^4 cells/well), A2058 (2×10^4 cells/well), and 903 (2×10^4 cells/well) melanoma cells were used as target cells and seeded into a 96-round well plate, and expanded Vγ9Vδ2 T cells (1×10^5 cells/well) served as effector cells were directly added to individual wells incubated overnight. The supernatants were collected and the lactate dehydrogenase activity was detected. Controls for spontaneous lactate dehydrogenase release from effector and target cells, the target maximum release, as well as the culture medium background were measured simultaneously (Zhou et al., Cell Mol Immunol. 2012; 9(1):34-44).
3-D Spheroid Assays. The 96-well plate was pre-coated with 50 μL 1.5% Agarose (LONZA, Rockland, ME). Melanoma cells (A2058 and UACC 903 cells) were labeled with CellTracker™ Orange CMRA Dye (Thermo Fisher Scientific, Waltham, MA) and seeded at 2×10^4 cells/well and allowed to form spheroids over 48 hours. […] Infiltrated spheroids were analyzed at 48 h using confocal microscope (Leica, Wetzlar, Germany). Spheroids were divided into single cells and CFSE+ cells infiltrating the spheroids was counted by flow cytometry.

[3] = test system: purified γδ T cells; assay: CFSE proliferation of purified naive γδ T cells; type: cell-based, human; conditions: ZOL+PBMCs group, same-donor PBMCs not labeled
Method: Primary cells and cell lines: PBMCs and monocytes were obtained from Human Immunology Core at the University of Pennsylvania, which were obtained from healthy donors-Using informed consent and approved by Institutional Review Board. For γδ T cell expansion, PBMCs were cultured with RPMI1640 media supplemented with 10% FBS (HyClone, GE Healthcare, UT, USA), 100 U/ml Penicillin-Streptomycin, 2 mM L-Glutamine, 1/1000 2-Mercaptoethanol (2-Me) (Gibco, ThermoFisher Scientific, MA, USA) (or without 2-Me as indicated) and 200 units/ml of Recombinant Human IL-2 (PeproTech, NJ, USA) in 24-well microplates, new media added and supplemented every other day. TCR-γδ T cells were expanded in 24-well tissue culture treated microplates that were coated with mouse-monoclonal Anti-Pan-TCR γδ antibody (1.0 ug/ml in PBS; IMMU510, IM1349, Beckman). For naive γδT cell isolation, PBMCs were purified using a commercial Human TCR γ/δ T Cell Isolation Kit (Miltenyi Biotec, Germany). Purified naive γδ T cells routinely exceeded >95% […] by flow cytometry. […]
Flow cytometry: PBMCs and γδ T cell phenotypes were analyzed by flow cytometry. […] Data were acquired on LSRA/B or Fortessa B flow cytometers (BD Biosciences, NJ, USA) at Flow Cytometry and Cell Sorting Resource Laboratory at the University of Pennsylvania and analyzed with FlowJo software (Tree Star, Ashland, OR).

[4] = test system: Vδ2 T cells in Hu-Mice; assay: Vδ2 T cell expansion from PBMCs of humanized mice; type: cell-based; conditions: PBMCs from four Hu-Mice, 10 days
From the text: Humanized Mice (Hu-Mice): Humanized mice were generated at the Wistar Institute as described (Somasundaram, et al., 2021, Nat Commun 12: 346). Briefly, the humanized mouse model is developed by reconstituting immunodeficient NSG mice with fetal liver-derived CD34+ human hematopoietic stem cells, grafted intravenously, and autologous fetal thymus chunks, grafted under the renal capsule, to promote rapid human T-cell differentiation.
NSG mice engrafted with human hematopoietic stem (CD34+) cells or peripheral blood leukocytes (Hu-Mice) are a useful tool to study immunotherapy (Somasundaram, et al., 2021, Nat Commun 12: 346). However, it was previously unclear whether these mice have functional human γδ T cells. As shown herein, CD3^+VS2^+ T cells are present in the PBMCs of Hu-Mice (FIG. 32A). PBMCs from four Hu-Mice were cultured using human PBMCs culture media and were stimulated with IPP plus resiquimod, or ZOL, for 10 days.

[5] = test system: γδ T cells; assay: Expansion of γδ T cells ex vivo from PBMC with ZOL or anti-γδTCR Ab plus IL-2; type: cell-based, human
Method: Expansion of γδ T cells ex vivo. PBMC were plated at 2×10^6 cells per well in 24-well flat-bottomed plates at 37° C. in a humidified atmosphere of 5% CO2. The standard culture medium contains RPMI 1640 (Gibco), containing 10% FBS (Gibco), 2 mM L-glutamine (Gibco), 100 U/ml penicillin (Gibco), streptomycin (Gibco) and 200 IU/ml IL-2 (PeproTech, Rocky Hill, NJ) (Castella et al., Nature communications. 2017; 8:15663.) 5 μM zoledronic acid (Sigma-Aldrich, St. Louis, MO USA) was added into the culture medium at the first day and the medium containing IL-2 changed every two days. In some cases, 24-well plates were pre-coated with 0.5 μg/ml anti-γδTCR Ab (Immunotech, Beckman Coulter, Fullerton, CA) and then PBMCs were added to the anti-γδTCR Ab-coated wells and cultured in the standard culture medium mentioned above. The viability and cell number of γδ T cells were evaluated by the trypan blue staining assay, and the percentage of γδ T cells counted by flow cytometry (Ryan et al., Proc NatlAcadSci USA. 2016; 113(50):14378-83).
Antibodies and flow cytometry analyses. […] Samples were acquired using a LSR-A flow cytometer (BD Biosciences, Baltimore, MD) and analyzed using FlowJo software (Tree Star Inc., Ashland, OR).

[6] = test system: gastric, colon and lung cancer cells; assay: LDH release cytotoxicity of expanded γδ T cells to epithelial cancer cell lines; type: cell-based, human; conditions: E:T 5:1; resiquimod 10 μg/ml
[7] = test system: melanoma cells; assay: LDH release cytotoxicity of expanded γδ T cells to melanoma cell lines; type: cell-based, human; conditions: E:T 5:1
Method: Cytotoxicity: Cytotoxicity of γδ T cells against melanoma cells was measured by lactate dehydrogenase (LDH) release using the CytoTox 96® Non-Radioactive Cytotoxicity Assay kit (G1780, Promega, WI, USA) as described (Zhu, et al., 2016, Molecular Medicine 22: 737-746). Briefly, Melanoma cells were seeded at 4×10^4 cells/well in 50 μl standard growth medium in 96-well plates, while γδ T cells were seeded at effective target ratio E:T=5:1 in the same volume of PBMC culture media at the same time. After the indicated time, plates were spin down briefly and 50 μl supernatants were then harvested for further analysis. Absorbance at 490 nm was read using a BioTek Synergy HT reader (BioTek Instruments, VT, USA) after LDH activity detection, the percentage of cytotoxicity was calculated as (Experimental-Effector Spontaneous-Target Spontaneous)/(Target Maximum-Target Spontaneous)×100.

[8] = test system: monocytes
Method: FIG. 30C provides data for purified monocytes cultured with resiquimod for 24 h with indicated concentration, and the viability and mortality were detected with Annexin V/7-AAD apoptosis kit and flow cytometry.

OCCS [2-mercaptoethanol]
effect of antioxidant in the culture medium on Vδ2 T cell expansion ([1]; IPP plus resiquimod, 8 days, medium with or without 2-Me): did not affect Vδ2 T cell expansion

NC(=O)[C@H]1CCS[C@@H]2C[C@]3(CCCN3C(=O)Cc3ccc(NC(=O)COc4ccc(Cl)cc4Cl)cc3)C(=O)N12 [ST2825]
effect of MyD88 inhibition on resiquimod co-stimulation of Vδ2 T cell expansion ([1]; PBMCs with IPP or IPP plus resiquimod): eliminated the co-stimulatory function of resiquimod

O=P(O)(O)C(O)(Cn1ccnc1)P(=O)(O)O [ZOL, zoledronate]
cytotoxicity of tumor spheroid assays [2]: comparable results | Vδ2 T cell (CFSE+) proliferation when PBMCs were added to the culture system [3]: regained the capability of inducing Vδ2 T cells (CFSE+) proliferation | expansion of peripheral Vδ2 T cells in Hu-Mice [4]: approximately a thousand-fold expansion | γδ T cell subsets expanded ([5]; PBMCs expanded by ZOL or anti-TCRγδ Ab): preferentially expanded Vδ2 cells | γδ T cell expansion, ZOL compared with anti-γδTCR antibody ([5]; PBMCs of healthy donors, 10 day expansion with IL-2): significantly better than that of anti-γδT TCR antibody; also recorded: better expansion of γδ T cells than anti-γδTCR antibody

CCNCc1nc2c(N)nc3ccccc3c2n1CC(C)(C)O [gardiquimod]
co-stimulatory effect on IPP induced Vδ2 T cell expansion ([1]; PBMCs): promoted Vδ2 T cell expansion

CC(C)Cn1cnc2c(N)nc3ccccc3c21 [imiquimod]
co-stimulatory effect on IPP induced Vδ2 T cell expansion ([1]; PBMCs): promoted Vδ2 T cell expansion

CCOCc1nc2c(N)nc3ccccc3c2n1CC(C)(C)O [resiquimod]
cytotoxic effect of γδ T cells expanded using pan-anti-γδTCR antibody to epithelial cancer cells [6]: significantly enhanced the cytotoxic effect | cytotoxic effect of γδ T cells expanded using pan-anti-γδTCR antibody to melanoma cell lines ([7]; A375, 12051u, 903, A2058, WM9, A2058CR, WM9CR, resiquimod 10 μg/ml): significantly enhanced the cytotoxic effect | cytotoxic effect of γδ T cells expanded using IPP ([7]; A375 and A2058, about 13 days expansion with or without resiquimod): significantly enhanced the cytotoxic effect | efficacy and cytotoxicity compared among three TLR7/8 agonists ([1]; co-stimulation with IPP, PBMCs, day 7): best efficacy with the least cytotoxicity | apoptosis and cell death of monocytes [8]: induced apoptosis and cell death in some monocytes

CCC(=O)N1CCN(c2ccc(-n3c(=O)ccc4cnc5ccc(-c6cnc7ccccc7c6)cc5c43)cc2C(F)(F)F)CC1 [torin1]
expansion of Vδ2 T cells induced by IPP in presence of mTOR inhibitor ([1]; PBMCs with IPP): significantly reduced | inhibition of Vδ2 T cell expansion by IPP plus resiquimod, relative to IPP ([1]; PBMCs with IPP plus resiquimod and mTOR inhibitor): more prominent
